Test results reported in US20240408086A1, “USE OF LUVADAXISTAT FOR THE TREATMENT OF COGNITIVE IMPAIRMENT” (TAKEDA PHARMACEUTICAL COMPANY LIMITED, priority 2021, published 2024).
Like-named read-outs stand apart in the source and are kept apart here.

Assays:
[1] = test system: Mouse; assay: Novel object recognition (cognition); assay type: in vivo; design: key: a + sign means efficacious; a − sign means not efficacious
From the text: (§1) In Table 1, a + sign means efficacious, a − sign means not efficacious, and an empty cell indicates a dose was not tested.

[2] = test system: Mouse; assay: BALB/C social interaction; assay type: in vivo; design: key: a + sign means efficacious; a − sign means not efficacious; conditions: for BALB/C social interaction (negative symptoms): 14-Day Once Daily (QD); for BALB/C social interaction (acute): Single Dose
From the text: as §1

[3] = test system: Mouse; assay: Poly I:C social interaction (acute); assay type: in vivo; design: key: a + sign means efficacious; a − sign means not efficacious; conditions: Single Dose
From the text: as §1

[4] = test system: D-serine in cerebellum; assay: D-serine increase in cerebellum (6 hours); assay type: in vivo; design: key: a + sign means efficacious; a − sign means not efficacious; conditions: Mouse
From the text: DAAO inhibition increases levels of D-serine, a co-agonist of the N-methyl-d-aspartate (NMDA) receptor. […] Increases in cerebellum D-serine levels may also influence distal regions of the brain (such as the hippocampus) or cortical regions, through a mechanism that remains to be elucidated. […] In Table 1, a + sign means efficacious, a − sign means not efficacious, and an empty cell indicates a dose was not tested.

[5] = test system: Mouse; assay: Eyeblink conditioning (ataxia and schizophrenia), 10-day QD; assay type: in vivo; design: key: a + sign means efficacious; a − sign means not efficacious; conditions: 10-Day Once Daily (QD)
From the text: as §1

[6] = test system: adult patients with persistent negative symptoms of schizophrenia; assay type: in vivo, human; conditions: for PANSS NSFS, LS mean change from baseline to Week 12: placebo −3.1
From the text: Compound (I) was orally administered in the form of a tablet once daily for up to 14 weeks. Compound (I) placebo-matching tablets were similarly orally administered once daily for up to 14 weeks. The treatment group remained undisclosed to the participant and study doctor/site personnel during the study unless there was an urgent medical need.
The primary endpoint evaluated was the change in negative symptoms, measured as the 12-week change from baseline in the Positive and Negative Syndrome Scale-Negative Symptom Factor Score (PANSS NSFS).

[7] = test system: adult patients with persistent negative symptoms of schizophrenia; assay type: in vivo, human; conditions: 50 mg, 125 mg, 500 mg once daily
[8] = test system: patients with schizophrenia; assay: Phase 1b crossover study: mismatch negativity (MMN) amplitude; assay type: in vivo, human
From the text: (§2) NCT03359785 was a randomized, double-blind, placebo-controlled cross-over Phase 1b clinical trial in schizophrenia patients at a single site to evaluate PD effects, safety, tolerability, and pharmacokinetics of multiple oral doses of Compound (I). The objective of the study was to assess pharmacodynamic (PD) biomarkers of Compound (I) on measures related to cerebellar circuitry function and NMDA pharmacology that are known to be affected in schizophrenia.
Evoked potentials in the electroencephalogram were also tested to assess the impact of multiple oral doses of Compound (I) on NMDA-sensitive physiological responses that are affected in schizophrenia. Specifically, mismatch negativity (MMN), auditory steady state response (ASSR), and P300 were measured at baseline and following 8 days of treatment in both periods.
MMN is an oddball event-related potential sensitive to NMDA-receptor pharmacology. MMN is an event related potential (ERP) evoked in response to unattended changes in background stimulation and is responsive to D-serine elevations. There is evidence of D-serine administration improving MMN in patients with schizophrenia. MMN reflects an automatic process of detecting a mismatch between a deviant stimulus and a sensory-memory trace (FIGS. 11A, 11B). Smaller amplitudes of MMN have been consistently identified in schizophrenia participants, with a large effect size compared with healthy controls. In this study, MMN amplitude was measured at Midline frontal electrode (Fz) of electroencephalogram [EEG].
All endpoints were analyzed as change from baseline compared to placebo within the same subjects. Statistical comparisons were conducted with an ANOVA model, with treatment sequence, period, and treatment as fixed effects, and subject as a random effect. As a supplementary analysis, an analysis of covariance model (ANCOVA) was applied to the primary endpoint with (period) baseline as a covariate, treatment sequence, period, treatment effect and baseline-by-treatment as fixed effects, and subject as a random effect.

[9] = test system: patients with schizophrenia; assay: Phase 1b crossover study: safety and tolerability; assay type: in vivo, human; conditions: 50 or 500 mg for 8 consecutive days
From the text: as §2
Safety objectives included the incidence of treatment-emergent adverse events (TEAEs), laboratory tests, vital signs, and electrocardiogram (ECG) assessments.

[10] = test system: scopolamine-induced EBC deficits; conditions: preclinical studies; see Example 2 of WO 2015/132608; cited from earlier work
[11] = 14-Day Once Daily (QD), 0.03 mg/kg
[12] = 14-Day Once Daily (QD), 0.1 mg/kg
[13] = 14-Day Once Daily (QD), 0.3 mg/kg
[14] = 14-Day Once Daily (QD), 1 mg/kg
[15] = 14-Day Once Daily (QD), 3 mg/kg

In the case of `O=c1[nH]nc(CCc2ccc(C(F)(F)F)cc2)cc1O` [Compound (I), luvadaxistat], the “Novel object recognition (cognition)” value ([1]; 14-Day Once Daily (QD), 0.001 mg/kg) was “−”, the “Novel object recognition (cognition)” value ([1]; 14-Day Once Daily (QD), 0.003 mg/kg) was “+” and the “Novel object recognition (cognition)” value ([1]; 14-Day Once Daily (QD), 0.01 mg/kg) was “+”. The “Novel object recognition (cognition)” value [1, 11] was “+”, the “Novel object recognition (cognition)” value [1, 12] was “+” and the “Novel object recognition (cognition)” value [1, 13] was “−”. The “Novel object recognition (cognition)” value [1, 14] was “−”, the “Novel object recognition (cognition)” value [1, 15] was “−” and the “Novel object recognition (cognition)” value ([1]; Single Dose, 0.1 mg/kg) was “−”. For the same compound, the “Novel object recognition (cognition)” value ([1]; Single Dose, 0.3 mg/kg) was “+”, the “Novel object recognition (cognition)” value ([1]; Single Dose, 1 mg/kg) was “+” and the “Novel object recognition (cognition)” value ([1]; Single Dose, 3 mg/kg) was “+”. The “Novel object recognition (cognition)” value ([1]; Single Dose, 10 mg/kg) was “+”, the “BALB/C social interaction (negative symptoms)” value ([2]; 0.001 mg/kg) was “−” and the “BALB/C social interaction (negative symptoms)” value ([2]; 0.003 mg/kg) was “−”. For the same compound, the “BALB/C social interaction (negative symptoms)” value ([2]; 0.01 mg/kg) was “+”, the “BALB/C social interaction (negative symptoms)” value ([2]; 0.03 mg/kg) was “+” and the “BALB/C social interaction (negative symptoms)” value ([2]; 0.1 mg/kg) was “+”. For the same compound, the “BALB/C social interaction (negative symptoms)” value ([2]; 0.3 mg/kg) was “+”, the “BALB/C social interaction (negative symptoms)” value ([2]; 1 mg/kg) was “+” and the “BALB/C social interaction (negative symptoms)” value ([2]; 3 mg/kg) was “+”. The “BALB/C social interaction (acute)” value ([2]; 0.3 mg/kg) was “−”, the “BALB/C social interaction (acute)” value ([2]; 1 mg/kg) was “+” and the “BALB/C social interaction (acute)” value ([2]; 3 mg/kg) was “+”. The “Poly I:C social interaction (acute)” value ([3]; 0.3 mg/kg) was “−”, the “Poly I:C social interaction (acute)” value ([3]; 1 mg/kg) was “−” and the “Poly I:C social interaction (acute)” value ([3]; 3 mg/kg) was “+”. The “D-serine increase in cerebellum (6 hours)” value (“D-serine increase” below) [4, 11] was “−”, the “D-serine increase” value [4, 12] was “−” and the “D-serine increase” value [4, 13] was “+”. The “D-serine increase” value [4, 14] was “+”, the “D-serine increase” value [4, 15] was “+” and the “D-serine increase” value ([4]; Single Dose, 0.3 mg/kg) was “+”. The “D-serine increase” value ([4]; Single Dose, 1 mg/kg) was “+”, the “D-serine increase” value ([4]; Single Dose, 3 mg/kg) was “+” and the “D-serine increase” value ([4]; Single Dose, 10 mg/kg) was “+”. For the same compound, the “Eyeblink conditioning (ataxia and schizophrenia)” value ([5]; 0.1 mg/kg) was “+”, the “Eyeblink conditioning (ataxia and schizophrenia)” value ([5]; 1 mg/kg) was “+” and the “PANSS NSFS, LS mean change from baseline to Week 12” value (shortened to “PANSS NSFS, LS mean change”) ([6]; 50 mg once daily, p=0.426 vs placebo) was −3.3. The “Improvement in PANSS NSFS versus placebo” value ([6]; 50 mg, 125 mg, or 500 mg at Week 12) was “no significant improvements”, the “PANSS NSFS, LS mean change” value ([6]; 125 mg once daily, p=0.362 vs placebo) was −3.4 and the “PANSS NSFS, LS mean change” value ([6]; 500 mg once daily, p=0.808 vs placebo) was −2.5. For the same compound, the “Negative symptoms as measured with the BNSS” value [7] was “no significant improvements”, the “MMN amplitude, effect size vs placebo” value ([8]; 50 mg for 8 days) was −0.691 and the “MMN amplitude, LS means change from baseline” value ([8]; 50 mg for 8 days, placebo 0.669, p=0.0497) was −0.239. The “MMN amplitude, effect size vs placebo” value ([8]; 500 mg for 8 days) was 0.389, the “MMN amplitude, LS means change from baseline” value ([8]; 500 mg for 8 days, placebo −0.154, p=0.8517) was 0.594 and the “Deaths, serious adverse events, TEAEs leading to discontinuation of study drug” value [9] was “no deaths, serious adverse events (AEs), or TEAEs leading to discontinuation of study drug”. For the same compound, the “Tolerability in the Phase 1b study” value [9] was “generally well tolerated” and the “Reversal of scopolamine-induced EBC deficits” value [10] was “robust effects in reversing scopolamine-induced EBC deficits”.
